Test results reported in patent publication US20260285850A1, “SUBSTITUTED OXAZOLIDINONES AND IMIDAZOLINONES AS HERBICIDES” (FMC CORPORATION, priority 2023, published 2026).

Legend:
Format in all cases: in vivo
[1] = system: wheat (Triticum aestivum); assay: Test A postemergence application, visual injury rating 0-100; settings: 10 days
From the text: (§1) Seeds of plant species selected from barnyardgrass (Echinochloa crus-galli), blackgrass (Alopecurus myosuroides), corn (Zea mays), foxtail, giant (giant foxtail, Setaria faberi), green foxtail (Setaria viridis), goosegrass (Eleusine indica), kochia (Bassia scoparia), oat, wild (wild oat, Avena fatua), palmer (palmer amaranth, palmer pigweed, Amaranthus palmeri), ragweed (common ragweed, Ambrosia artemisiifolia), ryegrass, Italian (italian ryegrass, Lolium multiflorum), soybean (Glycine max) and wheat (Triticum aestivum) were planted into a blend of loam soil and sand and treated preemergence with a directed soil spray using test chemicals formulated in a non-phytotoxic solvent mixture which included a surfactant.
(§2) At the same time, plants selected from these crops and weed species and also galium (catchweed bedstraw, Galium aparine) and horseweed (Erigeron canadensis) were planted in pots containing the same blend of loam soil and sand and treated with postemergence applications of test chemicals formulated in the same manner. Plants ranged in height from 2 to 10 cm and were in the one- to two-leaf stage for the postemergence treatment. Treated plants and untreated controls were maintained in a greenhouse for 10 days, after which time all treated plants were compared to untreated controls and visually evaluated for injury. Plant response ratings, summarized in Table A, are based on a 0 to 100 scale where 0 is no effect and 100 is complete control. A dash (-) response means no test result.

[2] = system: barnyardgrass (Echinochloa crus-galli); assay: as above; settings: 10 days
From the text: as §1, §2

[3] = system: oat, wild (wild oat, Avena fatua); assay: as above; settings: 10 days
From the text: as §1, §2

[4] = system: ryegrass, Italian (italian ryegrass, Lolium multiflorum); assay: as above; settings: 10 days
From the text: as §1, §2

kochia (Bassia scoparia) [5] = assay: as above; settings: 10 days
From the text: as §1, §2

[6] = system: ragweed (common ragweed, Ambrosia artemisiifolia); assay: as above; settings: 10 days
From the text: as §1, §2

[7] = system: blackgrass (Alopecurus myosuroides); assay: as above; settings: 10 days
From the text: as §1, §2

corn (Zea mays) [8] = assay: as above; settings: 10 days
From the text: as §1, §2

[9] = system: green foxtail (Setaria viridis); assay: as above; settings: 10 days
From the text: as §1, §2

[10] = system: palmer (palmer amaranth, palmer pigweed, Amaranthus palmeri); assay: as above; settings: 10 days
From the text: as §1, §2

soybean (Glycine max) [11] = assay: as above; settings: 10 days
From the text: as §1, §2

[12] = system: horseweed (Erigeron canadensis); assay: as above; settings: 10 days
From the text: as §1, §2

[13] = system: wheat (Triticum aestivum); assay: Test A preemergence soil spray, visual injury rating 0-100; settings: 10 days, 0 = no effect, 100 = complete control
From the text: as §1, §2

[14] = system: barnyardgrass (Echinochloa crus-galli); assay: as above; settings: 10 days, 0 = no effect, 100 = complete control
From the text: as §1, §2

[15] = system: oat, wild (wild oat, Avena fatua); assay: as above; settings: 10 days, 0 = no effect, 100 = complete control
From the text: as §1, §2

[16] = system: ryegrass, Italian (italian ryegrass, Lolium multiflorum); assay: as above; settings: 10 days, 0 = no effect, 100 = complete control
From the text: as §1, §2

kochia (Bassia scoparia) [17] = assay: as above; settings: 10 days, 0 = no effect, 100 = complete control
From the text: as §1, §2

[18] = system: ragweed (common ragweed, Ambrosia artemisiifolia); assay: as above; settings: 10 days, 0 = no effect, 100 = complete control
From the text: as §1, §2

[19] = system: blackgrass (Alopecurus myosuroides); assay: as above; settings: 10 days, 0 = no effect, 100 = complete control
From the text: as §1, §2

corn (Zea mays) [20] = assay: as above; settings: 10 days, 0 = no effect, 100 = complete control
From the text: as §1, §2

[21] = system: green foxtail (Setaria viridis); assay: as above; settings: 10 days, 0 = no effect, 100 = complete control
From the text: as §1, §2

[22] = system: palmer (palmer amaranth, palmer pigweed, Amaranthus palmeri); assay: as above; settings: 10 days, 0 = no effect, 100 = complete control
From the text: as §1, §2

soybean (Glycine max) [23] = assay: as above; settings: 10 days, 0 = no effect, 100 = complete control
From the text: as §1, §2

[24] = 31 g ai/ha, postemergence, 0 = no effect, 100 = complete control
[25] = Postemergence, 125 g ai/ha, 0 is no effect, 100 is complete control

CONC(=O)C1CC(NC(=O)C2(C)CN(c3cc(F)cc(F)c3)C(=O)O2)CO1 (stereo not shown) [Compound 40]
Wheat plant response rating (0-100) [1, 24]: 70 | Wheat plant response rating (0 to 100 scale) [1, 25]: 80 | Barnyardgrass plant response rating (0-100) [2, 24]: 10 | Barnyardgrass plant response rating (0 to 100 scale) [2, 25]: 100 | Oat, Wild plant response rating (0-100) [3, 24]: 90 | Oat, Wild plant response rating (0 to 100 scale) [3, 25]: 90 | Ryegrass, Italian plant response rating (0-100) [4, 24]: 20 | Ryegrass, Italian plant response rating (0 to 100 scale) [4, 25]: 60 | Kochia plant response rating (0-100) (kochia (Bassia scoparia) [5]; [24]): 0 | Kochia plant response rating (0 to 100 scale) (kochia (Bassia scoparia) [5]; [25]): 70 | Ragweed plant response rating (0-100) [6, 24]: 0 | Ragweed plant response rating (0 to 100 scale) [6, 25]: 20 | Blackgrass plant response rating (0-100) [7, 24]: 100 | Blackgrass plant response rating (0 to 100 scale) [7, 25]: 100 | Corn plant response rating (0-100) (corn (Zea mays) [8]; [24]): 20 | Corn plant response rating (0 to 100 scale) (corn (Zea mays) [8]; [25]): 100 | Foxtail, Green plant response rating (0-100) [9, 24]: 0 | Foxtail, Green plant response rating (0 to 100 scale) [9, 25]: 90 | Amaranth, Palmer plant response rating (0-100) [10, 24]: 0 | Amaranth, Palmer / Pigweed, Palmer plant response rating (0 to 100 scale) [10, 25]: 30 | Soybean plant response rating (0-100) (soybean (Glycine max) [11]; [24]): 0 | Soybean plant response rating (0 to 100 scale) (soybean (Glycine max) [11]; [25]): 60 | Horseweed plant response rating (0-100) [12, 24]: 30 | Horseweed plant response rating (0 to 100 scale) [12, 25]: 0 | Wheat plant response rating (0-100) ([13]; 31 g ai/ha): 50 | Wheat plant response rating (0 to 100 scale) ([13]; 125 g ai/ha): 90 | Barnyardgrass plant response rating (0-100) ([14]; 31 g ai/ha): 0 | Barnyardgrass plant response rating (0 to 100 scale) ([14]; 125 g ai/ha): 30 | Oat, Wild plant response rating (0-100) ([15]; 31 g ai/ha): 50 | Oat, Wild plant response rating (0 to 100 scale) ([15]; 125 g ai/ha): 90 | Ryegrass, Italian plant response rating (0-100) ([16]; 31 g ai/ha): 20 | Ryegrass, Italian plant response rating (0 to 100 scale) ([16]; 125 g ai/ha): 90 | Kochia plant response rating (0-100) (kochia (Bassia scoparia) [17]; 31 g ai/ha): 0 | Kochia plant response rating (0 to 100 scale) (kochia (Bassia scoparia) [17]; 125 g ai/ha): 0 | Ragweed plant response rating (0-100) ([18]; 31 g ai/ha): 0 | Ragweed plant response rating (0 to 100 scale) ([18]; 125 g ai/ha): 0 | Blackgrass plant response rating (0-100) ([19]; 31 g ai/ha): 50 | Blackgrass plant response rating (0 to 100 scale) ([19]; 125 g ai/ha): 80 | Corn plant response rating (0-100) (corn (Zea mays) [20]; 31 g ai/ha): 0 | Corn plant response rating (0 to 100 scale) (corn (Zea mays) [20]; 125 g ai/ha): 0 | Foxtail, Green plant response rating (0-100) ([21]; 31 g ai/ha): 0 | Foxtail, Green plant response rating (0 to 100 scale) ([21]; 125 g ai/ha): 20 | Amaranth, Palmer plant response rating (0-100) ([22]; 31 g ai/ha): 0 | Amaranth, Palmer plant response rating (0 to 100 scale) ([22]; 125 g ai/ha): 0 | Soybean plant response rating (0-100) (soybean (Glycine max) [23]; 31 g ai/ha): 0 | Soybean plant response rating (0 to 100 scale) (soybean (Glycine max) [23]; 125 g ai/ha): 10
